What was measured:
[1] = target: T1, KRAS^G12C (Homo sapiens, UniProt P01116, G12C); assay: KRAS^G12C degradation in homozygous MIA PaCa-2 cells; type: cell-based; set-up: endogenous in cells; host or cells: MIA PaCa-2; conditions: homozygous MIA PaCa-2 cells (FIG. 4B)
[2] = test system: pErk; assay: Erk signaling (pErk, total Erk) by immunoblot in SW1573 cells; type: cell-based; conditions: SW1573, 2.5 μM
Description: (§1) Signaling kinetics were monitored during a 24 hour time course in MIA PaCa2, NCI-H23, and SW1573 cells treated with 2.5 μM LC-2. Modulation of Erk signaling by both MRTX and LC-2 occurs within 6 hours in MIA PaCa-2 and NCI-H23 cells (FIGS. 10A, 10B, and 11). pErk was suppressed by both compounds at 6 and 24 hours in each cell lines. […] Total Erk was increased in LC-2 treated cells compared to DMSO at all time points indicating the initiation of a positive feedback loop upon KRAS^G12C degradation and pErk inhibition.
(§2) NCI-H2030 (CRL-5914), MIA PaCa-2 (CRL-1420), NCI-H23 (CRL-5800), NCI-H358 (CRL-5807), and HCT-116 (CCL-247) cells were obtained from ATCC, expanded immediately, and frozen down. Vials were thawed and used within 20 passages. SW1573 cells were a gift from Arvinas and were handled in the same manner. NCI-H2030, NCI-H23, and NCI-H358 were cultured in RPMI (ATCC30-2001) supplemented with 10% FBS (Biological Industries; cat. no. S1480) and 1% Penicillin-Streptomycin (ThermoFisher; cat. no. 15140122). HCT-116 cells were maintained in high glucose DMEM (ThermoFisher; cat. no. 11965084) supplemented as above. MIA PaCa-2 cells were cultured in high glucose DMEM supplemented with 10% FBS, 2.5% horse serum (ThermoFisher; cat. no. 26050-088; lot 2109875), and 1% Penicillin-Streptomycin. SW1573 cells were maintained in DMEM/F12 Nutrient Mix with GlutaMAX supplement (ThermoFisher; cat. no. 10565018) with 10% FBS and 1% Penicillin-Streptomycin added. DPBS (ThermoFisher; cat. no. 14190250) was used to wash cells and 0.25% Trypsin-EDTA (ThermoFisher; cat. no. […]) was used to detach cells for passaging. […] The VHL ligand was generously provided by Arvinas. […]
(§3) Cell lysates were clarified at 21000×g for 15 mins at 4° C. Protein levels were quantified using a 50:1 mixture of bicinchoninic acid solution (Millipore Sigma; cat. no. B9643) and 4% (w/v) copper(II) sulfate solution (Millipore Sigma; cat. no. C2284) incubated at 37° C. for 30 mins. Absorbance values at 560 nm were read on an EnVision 2101 Multilabel Reader (PerkinElmer). […]

[3] = as above; type: cell-based; conditions: SW1573, 2.5 μM, all time points
Description: as §1, §2, §3

[4] = target: T1, KRAS^G12C; assay: KRAS^G12C degradation in heterozygous NCI-H23 cells; type: cell-based; set-up: endogenous in cells; host or cells: NCI-H23
[5] = test system: pErk; assay: Erk signaling (pErk) during a 24 hour treatment in SW1573 cells; type: cell-based; conditions: 24 hour treatment time course (FIG. 11)
[6] = test system: pErk; conditions: NCI-H2030, 24 hour dose response
Description: The ability of LC-2 to modulate Erk signaling was investigated in NCI-H2030 and NCI-H23 cells during a 24 hour dose response.
NCI-H2030, NCI-H23, and NCI-H358 were cultured in RPMI (ATCC30-2001) supplemented with 10% FBS (Biological Industries; cat. no. S1480) and 1% Penicillin-Streptomycin (ThermoFisher; cat. no. 15140122). HCT-116 cells were maintained in high glucose DMEM (ThermoFisher; cat. no. 11965084) supplemented as above. […] DPBS (ThermoFisher; cat. no. 14190250) was used to wash cells and 0.25% Trypsin-EDTA (ThermoFisher; cat. no. 252000-056) was used to detach cells for passaging.
Cell lysates were clarified at 21000×g for 15 mins at 4° C. Protein levels were quantified using a 50:1 mixture of bicinchoninic acid solution (Millipore Sigma; cat. no. B9643) and 4% (w/v) copper(II) sulfate solution (Millipore Sigma; cat. no. C2284) incubated at 37° C. for 30 mins. Absorbance values at 560 nm were read on an EnVision 2101 Multilabel Reader (PerkinElmer). Proteins were separated using 26 well Criterion TGX precast 4-15% (cat. no. 5671085) or 8-16% (cat. no. 5671105) gradient midi gels. […]
Band intensities were quantified using BioRad's Image Lab Software. […] Data was analyzed by computing one-way ANOVAs or two-way ANOVAs (for grouped data) using multiple comparisons in which the mean of DMSO was compared to all treatment means using GraphPad Prism 7. […]

T1 sequence (P01116 1-188 isoform P01116-2 G12C): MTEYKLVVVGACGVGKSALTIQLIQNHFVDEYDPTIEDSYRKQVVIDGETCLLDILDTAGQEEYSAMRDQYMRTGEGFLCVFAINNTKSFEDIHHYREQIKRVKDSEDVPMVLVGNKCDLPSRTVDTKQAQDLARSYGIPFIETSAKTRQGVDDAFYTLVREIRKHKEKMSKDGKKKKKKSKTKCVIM

C=C(F)C(=O)N1CCN(c2nc(OC[C@@H]3CCCN3CCCOCCC(=O)N[C@H](C(=O)N3C[C@H](O)C[C@H]3C(=O)NCc3ccc(-c4scnc4C)cc3)C(C)(C)C)nc3c2CCN(c2cccc4cccc(Cl)c24)C3)C[C@@H]1CC#N [LC-2, (2S,4R)-1-((S)-2-(3-(3-((S)-2-(((7-(8-chloronaphthalen-1-yl)-4-((S)-3-(cyanomethyl)-4-(2-fluoroacryloyl)piperazin-1-yl)-5,6,7,8-tetrahydropyrido[3,4-d]pyrimidin-2-yl)oxy)methyl)pyrrolidin-1-yl)propoxy)propanamido)-3,3-dimethylbutanoyl)-4-hydroxy-N-(4-(4-methylthiazol-5-yl)benzyl)pyrrolidine-2-carboxamide]
induction of KRAS^G12C degradation [1]: induces KRAS^G12C
phosphorylated Erk over time ([2]; 24 hour time course): inhibited by 2.5 μM LC-2 between 1 and 4 hours, however pErk levels rebounded between 8 and 24 hours
pErk levels versus DMSO ([2]; 24 hours): significantly lower
total Erk versus DMSO [3]: increased
rescue of induced KRAS^G12C degradation (mechanism) ([4]; NCI-H23 cells, neddylation inhibition vs inhibition of lysosomal acidification (FIG. 5B)): Inhibition of neddylation, but not inhibition of lysosomal acidification, rescues
induction of KRAS^G12C degradation ([4]; heterozygous NCI-H23 cells (FIG. 4D)): induces KRAS^G12C degradation
pErk (Erk signaling) [5]: pErk is decreased throughout the time course
pErk signaling [6]: dose-dependent decrease in signaling
total Erk levels [6]: elevated in a dose-dependent manner
